Experimental data reported in publication PMC12112773, “Chemical Constituents and α-Glucosidase Inhibitory Activities of the Leaves of Embelia parviflora—In Vitro and In Silico Studies” (Life, 2025).
Where two headings read alike, the source gives them in different places.

Experiments:
α-glucosidase = conditions: cited from earlier work
[1] = biological target: T1, α-glucosidase from Saccharomyces cerevisiae (Saccharomyces cerevisiae, UniProt P53341); assay: in vitro assay of α-glucosidase enzyme inhibition (p-nitrophenyl α-D-glucopyranoside substrate); format: biochemical
T1 construct: purchased Sigma Aldrich (St. Louis, MO, USA)
Procedure: Enzyme α-glucosidase from Saccharomyces cerevisiae (E.C. 232-604-7) and p-nitrophenyl-α-D-glucopyranoside were purchased from Sigma Aldrich (St. Louis, MO, USA).
The in vitro assay of α-glucosidase enzyme inhibition of the E. parviflora MeOH extract and tested compounds was conducted following the methodology outlined in our earlier study [38]. Briefly, solutions of MeOH extract and isolated compounds at 256 μg/mL, 64 μg/mL, 16 μg/mL, 4 μg/mL, and 1 μg/mL concentrations were prepared using DMSO (Merck). The compound solution (2 μL) and 0.2 U/mL α-glucosidase enzyme solution (25 µL) in 120 µL phosphate buffer were mixed. After 5 min preincubation, a solution of 2.5 mM p-nitrophenyl α-D-glucopyranoside (25 µL) prepared in phosphate buffer was added. The reaction mixture was incubated at 37 °C for 30 min and was stopped by adding 0.2 M of Na2CO3 (100 µL). Enzymatic activity (the absorbance of the released p-nitrophenol) was quantified by measuring at 410 nm using a Biotek reader. The % inhibition was calculated using the following equation:Inhibition (%) = [1 − (Asample/Acontrol)] × 100
The biological experiments were performed in triplicate. The IC50 values are presented as the mean ± standard deviation (S.D) using the program Statistica 10.

[2] = mean ± S.D, triplicate, 37 °C, 30 min, read-out: α-Glucosidase inhibitory activity IC50

T1 sequence (P53341 whole entry): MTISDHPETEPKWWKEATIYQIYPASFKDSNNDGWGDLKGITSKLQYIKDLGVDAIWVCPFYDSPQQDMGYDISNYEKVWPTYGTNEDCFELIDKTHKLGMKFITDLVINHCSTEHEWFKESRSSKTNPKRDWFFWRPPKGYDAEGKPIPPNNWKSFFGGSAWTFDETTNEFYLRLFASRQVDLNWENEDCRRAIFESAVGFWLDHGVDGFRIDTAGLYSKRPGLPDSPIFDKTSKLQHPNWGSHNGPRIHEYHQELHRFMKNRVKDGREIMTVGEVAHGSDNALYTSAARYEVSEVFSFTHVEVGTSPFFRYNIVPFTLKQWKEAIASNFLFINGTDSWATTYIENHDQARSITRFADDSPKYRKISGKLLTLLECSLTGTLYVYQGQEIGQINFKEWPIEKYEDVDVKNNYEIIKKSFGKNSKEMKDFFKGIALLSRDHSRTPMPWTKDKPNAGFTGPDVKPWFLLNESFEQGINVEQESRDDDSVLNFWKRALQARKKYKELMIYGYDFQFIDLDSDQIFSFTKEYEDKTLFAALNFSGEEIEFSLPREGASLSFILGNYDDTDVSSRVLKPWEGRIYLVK

In the case of `CC[C@H](CC[C@@H](C)[C@H]1CC[C@H]2[C@@H]3CC=C4C[C@@H](O)CC[C@]4(C)[C@H]3CC[C@]12C)C(C)C` [Compound 1, β-sistosterol], the “anti-α-glucosidase activity IC50” value (α-glucosidase) is given as 283.67 µg/mL and the IC50 [1, 2] is given as > 617 µM.
In the case of `CC[C@H](CC[C@@H](C)[C@H]1CC[C@H]2[C@@H]3CC=C4C[C@@H](O[C@@H]5O[C@H](CO)[C@@H](O)[C@H](O)[C@H]5O)CC[C@]4(C)[C@H]3CC[C@]12C)C(C)C` [Compound 2, daucosterol], the “anti-α-glucosidase activity IC50” value (α-glucosidase) is listed as 247.35 µg/mL and the IC50 [1, 2] is listed as > 444 µM.
In the case of `CCCCCCCCCCCCCCCC(=O)OC[C@H]1O[C@@H](O[C@H]2CC[C@@]3(C)C(=CCC4C3CC[C@@]3(C)C4CC[C@@H]3[C@H](C)/C=C/[C@@H](CC)C(C)C)C2)[C@H](O)[C@@H](O)[C@@H]1O` (stereo partly drawn) [Compound 3, 3-O-(6′-O-palmitoyl)-β-D-glucopyranosyl stigmasterol], the IC50 [1, 2] is reported as > 315 µM.
For `C[C@H]1[C@H](C)CC[C@]2(C(=O)O)CC[C@]3(C)C(=CC[C@@H]4[C@@]5(C)CC[C@H](O)C(C)(C)[C@@H]5CC[C@]43C)[C@H]12` [Compound 4, ursolic acid], the manner of inhibition (α-glucosidase) is listed as “non-competitive” and the IC50 [1] is listed as 3.07 µM.
In the case of `C[C@@H]1O[C@@H](Oc2c(-c3ccc(O)c(O)c3)oc3cc(O)cc(O)c3c2=O)[C@H](O)[C@H](O)[C@H]1O` [Compound 7, quercitrin], the IC50 (α-glucosidase; Dang's group, read-out: α-glucosidase inhibitory activity IC50) is listed as 26.5 µM and the IC50 [1] is listed as 375 µM.
With `CC1OC(Oc2c(-c3ccc(O)c(OC4OC(CO)C(O)C(O)C4O)c3)oc3cc(O)cc(O)c3c2=O)C(O)C(O)C1O` (stereo not drawn) [Compound 8, quercetin-3-rhamnoside-3′-glucoside] the IC50 [1, 2] was > 419 µM.
For `CC1=CC(=O)CC(C)(C)[C@H]1/C=C/[C@@H](C)O` [Compound 9, (6R,9R)-9-hydroxy-4,7-megastigmadien-3-one], the IC50 [1, 2] was > 1230 µM.
For `CC(=O)C=C=C1C(C)(C)C[C@H](O)C[C@]1(C)O` [Compound 10, grasshopper ketone], the IC50 [1, 2] was > 1140 µM.
With `CC1=CC(=O)CC(C)(C)[C@H]1/C=C/[C@@H](C)O[C@@H]1O[C@H](CO[C@@H]2OC[C@](O)(CO)[C@H]2O)[C@@H](O)[C@H](O)[C@H]1O` [Compound 11, (6R,7E,9R)-9-hydroxy-4,7-megastigmadien-3-one-9-O-β-D-apiofuranosyl(1->6)-β-D-glucopyranoside] the IC50 [1, 2] was > 509 µM.
In the case of `CC1=CC(=O)CC(C)(C)[C@@]1(O)/C=C/[C@@H](C)O` [Compound 12, vomifoliol], the “α-glucosidase inhibitory activity (in words)” value (α-glucosidase) is given as “inactive” and the IC50 [1] is given as > 1140 µM.
For `COC(=O)/C=C/c1ccc(O)cc1` [Compound 13, methyl trans-p-coumarate], the IC50 (α-glucosidase; read-out: inhibition of α-glucosidase IC50) is given as 54.1 µM and the IC50 [1, 2] is given as > 1440 µM.
In the case of `CC1=C(O)C(=O)OC1C` (stereo not drawn) [Compound 16, sotolone], the IC50 [1, 2] is reported as > 2000 µM.
